# Source: article PMC8333425, “Discovery of a dual Ras and ARF6 inhibitor from a GPCR endocytosis screen” (Nature Communications, 2021)
# Columns and labels:
# Assay in all cases: KINOMEscan kinase binding assay
# [1] = target: T1, 384 kinases from the human genome (Homo sapiens, UniProt Q12851); conditions: kinase MAP4K2 (Entrez MAP4K2)
# T1 construct: purchased Eurofin/DiscoverX
# Method in brief: (§1)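 Competition binding (KINOMEscan) across 384 human kinases with compound at 10 µM. Ligand binding was expressed relative to DMSO (100%) as the average of duplicates from one experiment. S(10) selectivity score was derived.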
# [2] = target: T2, 384 kinases from the human genome (Homo sapiens, UniProt Q9UEE5); conditions: kinase DRAK1 (Entrez STK17A)
# T2 construct: purchased Eurofin/DiscoverX
# Method in brief: as §1
# [3] = target: T3, 384 kinases from the human genome (Homo sapiens, UniProt Q14680); conditions: kinase MELK (Entrez MELK)
# T3 construct: purchased Eurofin/DiscoverX
# Method in brief: as §1
# [4] = target: T4, 384 kinases from the human genome (Homo sapiens, UniProt Q8WU08); conditions: kinase YANK1 (Entrez STK32A)
# T4 construct: purchased Eurofin/DiscoverX
# Method in brief: as §1
# [5] = target: T5, 384 kinases from the human genome (Homo sapiens, UniProt Q16620); conditions: kinase TRKB (Entrez NTRK2)
# T5 construct: purchased Eurofin/DiscoverX
# Method in brief: as §1
# [6] = target: T6, 384 kinases from the human genome (Homo sapiens, UniProt Q9Y463); conditions: kinase DYRK1B (Entrez DYRK1B)
# T6 construct: purchased Eurofin/DiscoverX
# Method in brief: as §1
# [7] = target: T7, 384 kinases from the human genome (Homo sapiens, UniProt Q02763); conditions: kinase TIE2 (Entrez TEK)
# T7 construct: purchased Eurofin/DiscoverX
# Method in brief: as §1
# [8] = target: T8, 384 kinases from the human genome (Homo sapiens, UniProt O75460); conditions: kinase ERN1 (Entrez ERN1)
# T8 construct: purchased Eurofin/DiscoverX
# Method in brief: as §1
# [9] = target: T9, 384 kinases from the human genome (Homo sapiens, UniProt Q9C098); conditions: kinase DCAMKL3 (Entrez DCLK3)
# T9 construct: purchased Eurofin/DiscoverX
# Method in brief: as §1
# [10] = target: T10, 384 kinases from the human genome (Homo sapiens, UniProt O15197); conditions: kinase EPHB6 (Entrez EPHB6)
# T10 construct: purchased Eurofin/DiscoverX
# Method in brief: as §1
# [11] = target: T11, 384 kinases from the human genome (Homo sapiens, UniProt Q8IVH8); conditions: kinase MAP4K3 (Entrez MAP4K3)
# T11 construct: purchased Eurofin/DiscoverX
# Method in brief: as §1
# [12] = target: T12, 384 kinases from the human genome (Homo sapiens, UniProt Q15831); conditions: kinase LKB1 (Entrez STK11)
# T12 construct: purchased Eurofin/DiscoverX
# Method in brief: as §1
# [13] = target: T13, 384 kinases from the human genome (Homo sapiens, UniProt Q9BYP7); conditions: kinase WNK3 (Entrez WNK3)
# T13 construct: purchased Eurofin/DiscoverX
# Method in brief: as §1
# [14] = target: T14, 384 kinases from the human genome (Homo sapiens, UniProt Q9NQU5); conditions: kinase PAK6 (Entrez PAK6)
# T14 construct: purchased Eurofin/DiscoverX
# Method in brief: as §1
# [15] = target: T15, 384 kinases from the human genome (Homo sapiens, UniProt P37023); conditions: kinase ACVRL1 (Entrez ACVRL1)
# T15 construct: purchased Eurofin/DiscoverX
# Method in brief: as §1
# [16] = target: T16, 384 kinases from the human genome (Homo sapiens, UniProt P27361); conditions: kinase ERK1 (Entrez MAPK3)
# T16 construct: purchased Eurofin/DiscoverX
# Method in brief: as §1
# T10 sequence (O15197 32-1021): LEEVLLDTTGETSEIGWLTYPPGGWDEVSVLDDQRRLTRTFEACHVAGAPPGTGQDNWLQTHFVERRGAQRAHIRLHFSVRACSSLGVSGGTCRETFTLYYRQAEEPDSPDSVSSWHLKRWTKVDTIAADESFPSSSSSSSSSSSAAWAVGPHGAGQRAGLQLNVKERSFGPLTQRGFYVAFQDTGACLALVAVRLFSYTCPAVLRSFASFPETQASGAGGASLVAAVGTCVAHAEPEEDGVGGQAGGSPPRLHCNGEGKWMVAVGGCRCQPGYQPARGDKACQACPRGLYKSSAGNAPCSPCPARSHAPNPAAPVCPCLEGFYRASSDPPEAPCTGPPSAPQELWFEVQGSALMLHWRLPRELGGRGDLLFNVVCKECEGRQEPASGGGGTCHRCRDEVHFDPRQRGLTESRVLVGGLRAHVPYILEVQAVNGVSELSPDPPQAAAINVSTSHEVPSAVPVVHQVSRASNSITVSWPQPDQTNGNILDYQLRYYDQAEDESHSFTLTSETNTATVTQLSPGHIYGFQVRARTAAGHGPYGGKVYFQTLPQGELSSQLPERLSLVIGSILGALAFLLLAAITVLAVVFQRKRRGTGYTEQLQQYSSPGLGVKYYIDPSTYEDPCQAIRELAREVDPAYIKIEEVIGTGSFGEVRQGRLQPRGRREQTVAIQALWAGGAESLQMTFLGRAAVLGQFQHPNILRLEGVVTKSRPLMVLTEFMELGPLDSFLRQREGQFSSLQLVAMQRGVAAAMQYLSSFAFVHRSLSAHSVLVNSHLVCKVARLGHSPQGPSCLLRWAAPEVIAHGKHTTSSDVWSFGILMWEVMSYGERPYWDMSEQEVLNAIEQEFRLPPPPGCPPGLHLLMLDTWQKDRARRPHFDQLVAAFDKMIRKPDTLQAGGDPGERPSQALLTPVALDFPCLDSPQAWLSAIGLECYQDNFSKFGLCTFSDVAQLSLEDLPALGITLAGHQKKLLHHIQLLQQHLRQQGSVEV
# T4 sequence (Q8WU08 whole entry): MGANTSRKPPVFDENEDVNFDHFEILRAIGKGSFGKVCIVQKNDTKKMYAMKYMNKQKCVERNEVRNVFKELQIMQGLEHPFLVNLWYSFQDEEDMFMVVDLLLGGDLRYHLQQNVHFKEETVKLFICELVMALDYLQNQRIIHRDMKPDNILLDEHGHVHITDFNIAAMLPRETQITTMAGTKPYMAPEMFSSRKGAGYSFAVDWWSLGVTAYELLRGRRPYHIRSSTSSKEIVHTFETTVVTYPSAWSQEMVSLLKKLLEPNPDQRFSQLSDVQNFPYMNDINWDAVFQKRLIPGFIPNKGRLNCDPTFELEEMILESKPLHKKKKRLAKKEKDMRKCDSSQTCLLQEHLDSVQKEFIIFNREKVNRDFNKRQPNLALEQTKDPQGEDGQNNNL
# T8 sequence (O75460 19-977): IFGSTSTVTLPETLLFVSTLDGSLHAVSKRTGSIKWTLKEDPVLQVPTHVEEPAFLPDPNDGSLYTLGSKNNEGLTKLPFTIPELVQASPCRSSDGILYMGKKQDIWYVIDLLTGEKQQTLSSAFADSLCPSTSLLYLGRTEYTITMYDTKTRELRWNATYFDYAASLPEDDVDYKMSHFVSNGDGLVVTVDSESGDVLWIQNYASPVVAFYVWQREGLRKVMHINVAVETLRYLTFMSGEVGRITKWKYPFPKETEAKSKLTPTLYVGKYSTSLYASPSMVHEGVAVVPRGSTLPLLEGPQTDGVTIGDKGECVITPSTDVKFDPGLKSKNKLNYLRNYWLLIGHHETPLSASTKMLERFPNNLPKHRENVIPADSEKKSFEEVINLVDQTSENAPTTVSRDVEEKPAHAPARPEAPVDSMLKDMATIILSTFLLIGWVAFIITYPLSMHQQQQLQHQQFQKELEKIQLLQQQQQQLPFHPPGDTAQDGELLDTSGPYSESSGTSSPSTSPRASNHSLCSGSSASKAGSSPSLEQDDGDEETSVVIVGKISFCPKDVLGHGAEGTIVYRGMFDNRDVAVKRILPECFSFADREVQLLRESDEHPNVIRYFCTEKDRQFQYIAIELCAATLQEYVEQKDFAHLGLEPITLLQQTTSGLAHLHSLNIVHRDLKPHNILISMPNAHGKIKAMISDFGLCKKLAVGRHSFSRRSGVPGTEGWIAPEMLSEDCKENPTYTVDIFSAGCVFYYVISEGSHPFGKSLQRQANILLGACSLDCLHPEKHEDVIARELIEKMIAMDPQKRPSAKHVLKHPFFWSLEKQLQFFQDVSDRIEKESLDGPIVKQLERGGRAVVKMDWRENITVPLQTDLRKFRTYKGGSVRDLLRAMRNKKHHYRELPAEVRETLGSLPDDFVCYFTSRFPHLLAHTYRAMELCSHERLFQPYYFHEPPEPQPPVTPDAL
# T3 sequence (Q14680 whole entry): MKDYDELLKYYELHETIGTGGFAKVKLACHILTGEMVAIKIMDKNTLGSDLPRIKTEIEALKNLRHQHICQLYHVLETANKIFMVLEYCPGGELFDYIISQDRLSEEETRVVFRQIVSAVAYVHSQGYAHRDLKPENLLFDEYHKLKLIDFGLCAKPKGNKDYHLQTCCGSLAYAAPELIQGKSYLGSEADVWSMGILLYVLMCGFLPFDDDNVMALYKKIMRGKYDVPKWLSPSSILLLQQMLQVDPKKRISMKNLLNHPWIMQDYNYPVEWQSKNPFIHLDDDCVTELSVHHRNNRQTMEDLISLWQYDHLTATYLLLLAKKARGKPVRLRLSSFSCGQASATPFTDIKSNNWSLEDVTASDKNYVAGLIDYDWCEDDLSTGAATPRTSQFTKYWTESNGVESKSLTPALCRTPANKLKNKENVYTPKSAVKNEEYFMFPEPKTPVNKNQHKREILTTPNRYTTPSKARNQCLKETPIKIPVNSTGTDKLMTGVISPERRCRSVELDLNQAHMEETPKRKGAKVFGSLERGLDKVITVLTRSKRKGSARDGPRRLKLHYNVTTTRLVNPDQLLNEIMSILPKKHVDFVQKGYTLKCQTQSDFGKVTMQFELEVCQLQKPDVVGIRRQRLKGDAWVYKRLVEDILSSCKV
# T1 sequence (Q12851 whole entry): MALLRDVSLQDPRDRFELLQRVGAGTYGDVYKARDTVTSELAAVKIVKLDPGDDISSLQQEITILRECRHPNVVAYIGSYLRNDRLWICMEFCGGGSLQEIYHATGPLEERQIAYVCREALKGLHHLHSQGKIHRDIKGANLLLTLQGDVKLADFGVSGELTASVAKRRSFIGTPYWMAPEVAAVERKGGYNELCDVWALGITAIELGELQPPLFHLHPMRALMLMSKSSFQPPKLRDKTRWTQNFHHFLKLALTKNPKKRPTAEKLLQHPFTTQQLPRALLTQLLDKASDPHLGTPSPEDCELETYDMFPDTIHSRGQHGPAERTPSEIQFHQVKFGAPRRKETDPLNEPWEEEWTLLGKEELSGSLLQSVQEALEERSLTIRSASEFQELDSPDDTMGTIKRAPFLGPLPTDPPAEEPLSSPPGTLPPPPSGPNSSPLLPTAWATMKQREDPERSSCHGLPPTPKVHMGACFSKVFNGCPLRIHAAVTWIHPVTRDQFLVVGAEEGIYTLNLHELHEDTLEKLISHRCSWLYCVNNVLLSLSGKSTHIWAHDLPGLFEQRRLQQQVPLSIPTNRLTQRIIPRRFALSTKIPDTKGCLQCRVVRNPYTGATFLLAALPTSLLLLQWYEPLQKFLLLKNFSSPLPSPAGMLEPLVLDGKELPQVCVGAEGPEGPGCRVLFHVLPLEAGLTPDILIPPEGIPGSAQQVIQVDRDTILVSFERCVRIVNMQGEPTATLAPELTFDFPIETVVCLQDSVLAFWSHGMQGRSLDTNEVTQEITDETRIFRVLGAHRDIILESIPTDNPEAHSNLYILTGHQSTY
# T16 sequence (P27361 whole entry): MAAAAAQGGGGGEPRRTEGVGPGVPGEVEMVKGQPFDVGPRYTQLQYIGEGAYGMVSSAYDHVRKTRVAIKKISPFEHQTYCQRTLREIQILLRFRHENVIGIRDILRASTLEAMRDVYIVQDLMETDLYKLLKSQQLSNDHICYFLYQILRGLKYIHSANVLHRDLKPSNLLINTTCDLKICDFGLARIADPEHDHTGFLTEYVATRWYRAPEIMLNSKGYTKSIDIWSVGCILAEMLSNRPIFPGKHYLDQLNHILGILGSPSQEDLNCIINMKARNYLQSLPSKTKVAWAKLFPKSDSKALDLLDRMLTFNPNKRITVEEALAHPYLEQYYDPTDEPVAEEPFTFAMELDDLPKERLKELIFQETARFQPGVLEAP
# T9 sequence (Q9C098 whole entry): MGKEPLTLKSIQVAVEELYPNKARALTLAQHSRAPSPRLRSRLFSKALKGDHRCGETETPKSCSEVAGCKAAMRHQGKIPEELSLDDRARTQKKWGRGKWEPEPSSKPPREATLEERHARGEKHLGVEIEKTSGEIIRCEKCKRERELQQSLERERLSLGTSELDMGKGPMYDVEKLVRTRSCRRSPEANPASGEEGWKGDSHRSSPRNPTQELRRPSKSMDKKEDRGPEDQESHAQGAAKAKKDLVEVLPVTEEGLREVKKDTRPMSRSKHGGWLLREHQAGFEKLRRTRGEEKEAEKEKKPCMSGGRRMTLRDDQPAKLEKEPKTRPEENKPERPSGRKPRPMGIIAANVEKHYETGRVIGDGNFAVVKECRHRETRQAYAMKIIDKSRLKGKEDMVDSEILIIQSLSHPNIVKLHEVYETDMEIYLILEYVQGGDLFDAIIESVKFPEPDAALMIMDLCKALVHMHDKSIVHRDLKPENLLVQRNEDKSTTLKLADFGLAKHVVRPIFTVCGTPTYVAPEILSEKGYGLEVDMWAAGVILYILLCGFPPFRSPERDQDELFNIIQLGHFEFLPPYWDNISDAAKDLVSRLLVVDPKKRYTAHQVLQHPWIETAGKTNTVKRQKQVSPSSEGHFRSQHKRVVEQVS
smiles,measurement,setting,value
CC(C)C(=O)N1CCN(c2ccc(NC(=O)c3cc4ccccc4o3)cc2Cl)CC1 [Compound 21],Percent Control,[1],100%
same,Percent Control,[2],93%
same,Percent Control,[3],29%
same,Percent Control,[4],81%
same,Percent Control,[5],55%
same,Percent Control,[6],79%
same,Percent Control,[7],88%
same,Percent Control,[8],55%
same,Percent Control,[9],97%
same,Percent Control,[10],98%
same,Percent Control,[11],78%
same,Percent Control,[12],67%
same,Percent Control,[13],90%
same,Percent Control,[14],81%
same,Percent Control,[15],94%
same,Percent Control,[16],93%
